The supplement of paper PMC10307832

Legend:
Test in all cases: relative viability (nuclei count vs DMSO), 5 days (fraction); higher = more cells survive
CAP-232 + Trametinib = compound: C[C@H]([C@@H](C(=O)N)NC(=O)[C@@H]1CSSC[C@@H](C(=O)N[C@H](C(=O)N[C@@H](C(=O)N[C@H](C(=O)N1)CCCCN)CC2=CNC3=CC=CC=C32)CC4=CC=C(C=C4)O)NC(=O)[C@@H](CC5=CC=CC=C5)N)O [CAP-232] + CC(=O)Nc1cccc(-n2c(=O)n(C3CC3)c(=O)c3c(Nc4ccc(I)cc4F)n(C)c(=O)c(C)c32)c1 [Trametinib] (partner 0.02 µM)
Summary of the method: (§1)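 For relative viability, nuclei counts in treated wells were divided by those in vehicle wells. Lung cancer cell lines had been pin-tool dosed in 1536-well plates the day after seeding and cultured for 5 days, then fixed and stained in one step (final 0.05% Triton X-100, 1% formaldehyde, 1 ug/ml Hoechst) and imaged at 4×. Doses were one drug alone or a fixed anchor-drug dose plus five library-drug doses (not always all listed) in √10 steps, and values are duplicate-plate medians.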

CAP-232 + Pictilisib = compound: C[C@H]([C@@H](C(=O)N)NC(=O)[C@@H]1CSSC[C@@H](C(=O)N[C@H](C(=O)N[C@@H](C(=O)N[C@H](C(=O)N1)CCCCN)CC2=CNC3=CC=CC=C32)CC4=CC=C(C=C4)O)NC(=O)[C@@H](CC5=CC=CC=C5)N)O [CAP-232] + CS(=O)(=O)N1CCN(Cc2cc3nc(-c4cccc5[nH]ncc45)nc(N4CCOCC4)c3s2)CC1 [Pictilisib] (partner 1 µM)
Summary of the method: as §1

CAP-232 + Crizotinib = compound: C[C@H]([C@@H](C(=O)N)NC(=O)[C@@H]1CSSC[C@@H](C(=O)N[C@H](C(=O)N[C@@H](C(=O)N[C@H](C(=O)N1)CCCCN)CC2=CNC3=CC=CC=C32)CC4=CC=C(C=C4)O)NC(=O)[C@@H](CC5=CC=CC=C5)N)O [CAP-232] + C[C@@H](Oc1cc(-c2cnn(C3CCNCC3)c2)cnc1N)c1c(Cl)ccc(F)c1Cl [Crizotinib] (partner 1 µM)
Summary of the method: as §1

CAP-232 + AZD7762 = compound: C[C@H]([C@@H](C(=O)N)NC(=O)[C@@H]1CSSC[C@@H](C(=O)N[C@H](C(=O)N[C@@H](C(=O)N[C@H](C(=O)N1)CCCCN)CC2=CNC3=CC=CC=C32)CC4=CC=C(C=C4)O)NC(=O)[C@@H](CC5=CC=CC=C5)N)O [CAP-232] + NC(=O)Nc1cc(-c2cccc(F)c2)sc1C(=O)N[C@H]1CCCNC1 [AZD7762] (partner 0.2 µM)
Summary of the method: as §1

CAP-232 + Olaparib = compound: C[C@H]([C@@H](C(=O)N)NC(=O)[C@@H]1CSSC[C@@H](C(=O)N[C@H](C(=O)N[C@@H](C(=O)N[C@H](C(=O)N1)CCCCN)CC2=CNC3=CC=CC=C32)CC4=CC=C(C=C4)O)NC(=O)[C@@H](CC5=CC=CC=C5)N)O [CAP-232] + O=C(c1cc(Cc2n[nH]c(=O)c3ccccc23)ccc1F)N1CCN(C(=O)C2CC2)CC1 [Olaparib] (partner 8 µM)
Summary of the method: as §1

Cell Line | relative viability (CAP-232 + Trametinib; first compound 0.4 µM) | relative viability (CAP-232 + Trametinib; first compound 1.265 µM) | relative viability (CAP-232 + Trametinib; first compound 4 µM) | relative viability (CAP-232 + Trametinib; first compound 12.65 µM) | relative viability (CAP-232 + Pictilisib; first compound 0.4 µM) | relative viability (CAP-232 + Pictilisib; first compound 1.265 µM) | relative viability (CAP-232 + Pictilisib; first compound 4 µM) | relative viability (CAP-232 + Pictilisib; first compound 12.65 µM) | relative viability (CAP-232 + Crizotinib; first compound 0.4 µM) | relative viability (CAP-232 + Crizotinib; first compound 1.265 µM) | relative viability (CAP-232 + Crizotinib; first compound 4 µM) | relative viability (CAP-232 + Crizotinib; first compound 12.65 µM) | relative viability (CAP-232 + AZD7762; first compound 0.4 µM) | relative viability (CAP-232 + AZD7762; first compound 1.265 µM) | relative viability (CAP-232 + AZD7762; first compound 4 µM) | relative viability (CAP-232 + AZD7762; first compound 12.65 µM) | relative viability (CAP-232 + Olaparib; first compound 0.4 µM) | relative viability (CAP-232 + Olaparib; first compound 1.265 µM) | relative viability (CAP-232 + Olaparib; first compound 4 µM) | relative viability (CAP-232 + Olaparib; first compound 12.65 µM)
NCI-H1792 | 0.516 | 0.443 | 0.474 | 0.415 | 0.26 | 0.323 | 0.3 | 0.204 | 1.37 | 1.02 | 0.834 | 0.722 | 0.892 | 0.715 | 0.793 | 0.757 | 0.51 | 0.642 | 0.623 | 0.235
NCI-H1437 | 0.445 | 0.515 | 0.617 | 0.458 | 0.38 | 0.426 | 0.515 | 0.279 | 1.11 | 0.927 | 1.05 | 0.81 | 1.15 | 1.11 | 1.09 | 1.05 | 0.64 | 0.629 | 0.665 | 0.607
HOP-62 | 0.333 | 0.348 | 0.382 | 0.423 | 0.575 |  | 0.741 | 0.84 | 1 |  | 1.05 | 0.729 | 0.883 | 0.482 | 0.981 | 0.607 | 1.08 | 0.388 | 0.604 | 0.709
EPLC-272H | 0.261 | 0.258 | 0.281 | 0.28 | 0.284 | 0.281 | 0.325 | 0.287 | 1.16 | 0.836 | 0.791 | 0.887 | 0.287 | 0.165 | 0.228 | 0.209 |  | 0.935 | 0.761 | 0.31
HCC-366 | 0.365 | 0.419 | 0.327 | 0.349 | 0.133 | 0.154 | 0.148 | 0.189 | 0.486 | 0.543 | 0.623 | 0.448 | 0.399 | 0.328 | 0.308 | 0.374 | 0.4 | 0.383 | 0.289 | 0.299
HCC-44 | 0.997 | 1.02 | 1.06 | 1.04 | 0.675 | 0.616 | 0.428 | 0.594 | 0.866 | 0.812 | 0.863 | 0.846 | 0.995 | 1.06 | 1.04 | 0.986 | 0.99 | 0.975 | 0.943 | 1.04
NCI-H23 | 0.339 | 0.435 | 0.439 | 0.28 | 0.405 | 0.491 | 0.504 | 0.462 | 0.532 | 0.444 | 0.462 | 0.362 | 0.286 | 0.236 | 0.239 | 0.22 | 0.34 | 0.301 | 0.306 | 0.27
NCI-H838 | 0.59 | 0.555 | 0.626 | 0.39 | 0.439 | 0.357 | 0.475 | 0.345 | 1.03 | 0.804 | 0.981 | 0.65 | 1.05 | 0.995 | 0.989 | 0.823 | 0.883 | 0.808 | 0.836 | 0.705
NCI-H1355 | 0.437 | 0.434 | 0.456 | 0.342 | 0.365 | 0.464 | 0.497 | 0.521 | 1.02 | 1.01 | 1.22 | 1.27 | 0.794 | 0.82 | 0.872 | 0.706 | 0.737 | 0.747 | 0.769 | 0.703
NCI-H1944 | 0.353 | 0.437 | 0.404 | 0.422 | 0.371 | 0.33 | 0.394 | 0.354 | 1.12 | 1.05 | 1.03 | 1.24 | 0.516 | 0.476 | 0.452 | 0.367 | 0.385 | 0.368 | 0.411 | 0.357
NCI-H2087 | 0.188 | 0.228 | 0.201 | 0.205 | 0.791 | 0.983 | 0.929 | 0.484 | 0.929 | 0.809 | 0.967 | 0.819 | 1.32 | 1.4 | 1.59 | 0.684 | 0.646 | 0.669 | 0.697 | 0.312
PC-14 | 0.843 | 0.891 | 0.739 | 0.37 | 0.771 | 0.661 | 0.734 | 0.656 | 1.02 | 0.861 | 0.933 | 0.89 | 0.522 | 0.297 | 0.334 | 0.24 | 0.265 | 0.264 | 0.213 | 0.239
LC-2-ad | 0.967 | 0.925 | 0.936 | 0.884 | 0.404 | 0.409 | 0.63 | 0.458 | 0.436 | 0.464 | 0.451 | 0.391 | 0.917 | 0.815 | 0.919 | 0.688 | 0.726 | 0.738 | 0.768 | 0.7
HCC-78 | 0.688 | 0.824 | 0.918 | 0.727 | 0.206 | 0.178 | 0.21 | 0.195 | 0.367 | 0.34 | 0.251 | 0.323 | 0.747 | 0.612 | 0.591 | 0.713 | 0.852 | 0.863 | 1.08 | 0.924
